Test results taken from patent publication US20260248791A1, “METHODS FOR TREATING DERMATOMYOSITIS WITH BREPOCITINIB” (priority 2023, published 2026).

Columns and labels:
clinical = conditions: human, in vivo
CYP1A2 = CYP1A2 (Homo sapiens, UniProt P05177)
[1] = Dissolution from immediate-release tablets; format: physicochemical; conditions: in 30 minutes; 30 mg tablet, pH 6.8 phosphate buffer, USP Apparatus II, 75 rpm
Experimental: Dissolution: […] An illustrative dissolution profile for a prototype 30 mg tablet in pH 6.8 phosphate buffer using USP Apparatus II, 75 rpm is shown in FIG. 6. […] The final to-be-marketed product will be tested in all three-pH media for confirmation of rapid dissolution. The to-be-marketed product will be developed at a commercial manufacturing site that is to be decided and will be different from that used to manufacture the current clinical trial material.

Broad off-target panel = conditions: functional assays, ligand binding, enzyme activity
[2] = system: rat adjuvant-induced arthritis; test: Rat adjuvant-induced arthritis disease model; conditions: in vivo
From the text: (§1) Pharmacology. Brepocitinib inhibits various TYK2- and JAK1-dependent functions in different cell types such as cytokine-induced phosphorylation of signal transducer and activator transcriptions (STATs) in human peripheral blood mononuclear cells (PBMCs) and whole blood; differentiation of T helper (Th) 1, Th17, and B cells, interleukin (IL)-12-induced IFNγ production in human PBMCs; and IFN-1 gene signature induced by immune complexes in human PBMCs.

human PBMCs = test: IFN-1 gene signature induced by immune complexes; format: cell-based
From the text: as §1

[3] = system: T helper (Th) 1, Th17, and B cells; test: Differentiation of Th1, Th17 and B cells; format: cell-based
From the text: as §1

[4] = In vitro profiling for metabolic drug-drug interactions; conditions: direct inhibition and induction mechanisms

CYP1A2, sequence (P05177 whole entry): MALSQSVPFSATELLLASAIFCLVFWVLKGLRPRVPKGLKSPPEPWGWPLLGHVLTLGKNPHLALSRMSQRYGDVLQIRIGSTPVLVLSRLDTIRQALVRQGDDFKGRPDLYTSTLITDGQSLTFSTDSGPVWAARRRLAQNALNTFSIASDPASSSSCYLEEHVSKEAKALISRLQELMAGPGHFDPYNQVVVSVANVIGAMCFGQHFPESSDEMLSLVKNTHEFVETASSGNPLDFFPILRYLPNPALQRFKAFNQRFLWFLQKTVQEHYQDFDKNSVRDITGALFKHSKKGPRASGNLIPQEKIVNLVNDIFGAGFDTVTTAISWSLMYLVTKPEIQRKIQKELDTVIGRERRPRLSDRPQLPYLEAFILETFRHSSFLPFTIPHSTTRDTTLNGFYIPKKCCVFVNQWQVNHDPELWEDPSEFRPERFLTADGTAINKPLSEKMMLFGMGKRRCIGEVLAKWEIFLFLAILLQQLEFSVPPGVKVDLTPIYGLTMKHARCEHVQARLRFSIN

Cn1cc(Nc2nccc(N3C[C@H]4CC[C@@H](C3)N4C(=O)[C@@H]3CC3(F)F)n2)cn1 [Brepocitinib, [(1S)-2,2-difluorocyclo-propyl][(1R,5S)-3-{2-[(1-methyl-1H-pyrazol-4-yl)amino]pyrimidin-4-yl}-3,8-diazabicyclo[3.2.1]oct-8-yl]methanone]
half-life (clinical): 4 to 8 h | bioavailability (clinical; absolute bioavailability): ~75% | bioavailability (clinical; bioavailability of tablets relative to solution): ~96% | in vitro fraction metabolized (CYP1A2): 0.14 | dissolution from immediate-release (IR) tablets [1]: > 85% | off-target pharmacology potential (Broad off-target panel): low potential for off-target pharmacology | effect in rat adjuvant-induced arthritis [2]: anti-inflammatory effects | IFN-1 gene signature induced by immune complexes (human PBMCs): inhibits | differentiation of Th1, Th17, and B cells [3]: inhibits | potential to be a perpetrator of metabolic drug-drug interactions [4]: low potential
